Measured values as given in patent US20100022639A1, “Methods of Inducing Weight Loss” (The Johns Hopkins University School of Medicine Licensing …, priority 2000, published 2010).

How the values were obtained:
feeding behavior [1] = test: ICV TOFA pretreatment and feeding inhibition by IP C-75; type: in vivo, BALB/c mice; conditions: 2 μg TOFA ICV, 2 hours later 15 mg/kg C-75 IP, food intake over 2 hours
Method: This model predicts that feeding inhibition by FAS inhibitors should be attenuated by inhibitors of ACC's. To test this, mice were pretreated with the ACC inhibitor TOFA or vehicle by ICV injection and examined the ability of C-75, administered IP, to inhibit feeding. BALB/c mice were anesthetized with metofane and injected ICV with 2 μg of TOFA or DMSO vehicle. After 2 hours recovery, mice were injected IP with 15 mg C-75/kg or RPMI vehicle and monitored for total food intake over 2 hours. […] In addition, mice were anesthetized and injected ICV with 2 μl of RPMI or C-75 at 2.5 or 5 μg/μl and food intake monitored over 2 (shaded) and 4 (solid) hours. The efficacy of centrally administered TOFA argues for a central (CNS) mechanism of action. ICV administration of C-75 inhibited feeding by 82% (FIG. 5C), supporting the central target action of C-75. FIGS. 5(B) and (C) combine results from 3 experiments with N=3 for each (9 total).

[2] = system: acetyl CoA carboxylase (ACC); conditions: previous studies; cited from earlier work
feeding behavior [3] = test: Reversal of C-75 feeding inhibition by intracerebroventricular NPY; type: in vivo, mice; conditions: 500 ng NPY ICV
Method: To confirm this finding, the capacity of NPY to reverse C-75-induced inhibition of feeding was examined. Mice were pretreated with 30_mg/kg of C-75 by I.P. injection. After 4 hours, mice were anaesthetized by inhaled metofane and given a direct intracerebroventricular injection of 500_ng NPY (2.5 μl total volume) or artificial CSF vehicle. Mice were placed into metabolic cages and observed for feeding behavior and monitored for food intake over 18 hours.

Row | Molecule | food intake in C-75-treated mice after TOFA pretreatment (feeding behavior [1]) | effect on fatty acid synthesis [2] | effect on feeding [2] | feeding behavior after ICV injection (feeding behavior [3]; mice pretreated with vehicle or C-75) | total food intake in C-75-treated mice (feeding behavior [3]; monitored over 18 hours)
1 | CCCCCCCCCCCCCCOc1ccc(C(=O)O)o1 [TOFA] | largely restored food intake | inhibition of fatty acid synthesis | did not inhibit feeding | – | –
2 | NPY: neuropeptide Y, anabolic neuropeptide produced in the hypothalamus that strongly stimulates feeding; injected ICV | – | – | – | rapidly led to voracious feeding | substantially elevate the total food intake
